This note sets out measurements from ChEMBL document CHEMBL1201862, “PubChem BioAssay data set” (2004).

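Exposure lasted 48 hours, with cells grown in 96-well plates and compounds tested at five concentrations. At the GI50, growth is halved.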 Active and inactive are the calls of the source. Rule as the data show it: active = GI50 up to about 1.1 µM and inactive = higher. Bounds are passed on as bounds.

Among the test systems are OVCAR-4; IGROV-1; SF-268; MOLT-4; SR; HCT-15; MDA-MB-231; A549; MCF7; CAKI-1; HT-29; COLO 205; HCT-116; SW-620; UACC-257; K562; DU-145; KM12; T47D; NCI-H226.
What all share (assay): growth of human tumour cells (NCI), 48 h

For `O=c1[nH]c(=O)n(COCCO)cc1-c1ccccc1`, the GI50 with OVCAR-4 is > 100 µM (inactive); in the experiment with IGROV-1 it was > 100 µM (inactive); with SF-268, > 100 µM (inactive); with MOLT-4, > 100 µM (inactive); with SR, > 100 µM (inactive); with HCT-15, more than 100 µM. The GI50 in the experiment with MDA-MB-231, with A549, in the experiment on MCF7, in the experiment on CAKI-1, in the experiment on HT-29 and in the experiment with COLO 205 was > 100 µM (inactive) throughout. Besides, the GI50 in the experiment with HCT-116, with SW-620, with UACC-257, with K562, in the experiment on DU-145 and in the experiment with KM12 was > 100 µM (inactive) each time. The GI50 in the experiment on T47D is > 100 µM (inactive).
As to `CN/C(=N\n1cnnc1)OC`, the GI50 in the experiment on OVCAR-4 is > 100 µM (inactive); in the experiment with IGROV-1, > 100 µM (inactive); with MOLT-4, > 100 µM (inactive); in the experiment on SR, > 100 µM (inactive); in the experiment on HCT-15 it was more than 100 µM; in the experiment with MDA-MB-231 it was > 100 µM (inactive). Also, the GI50 in the experiment on A549, in the experiment on MCF7, in the experiment on CAKI-1, in the experiment with HT-29, in the experiment with COLO 205 and with HCT-116 was > 100 µM (inactive) throughout. Moreover, the GI50 in the experiment with SW-620, in the experiment with UACC-257, in the experiment on K562, in the experiment with DU-145, with KM12 and with T47D was > 100 µM (inactive) in each case.
Turning to `C=Cc1c(C)c2cc3nc(c4c5[nH]c(cc6nc(cc1[nH]2)C(C)=C6CC)c(C)c5C(=O)C4C(=O)OC)C(CCC(=O)OC)C3C` (centres undefined), the GI50 was > 100 µM (inactive) in the experiment on OVCAR-4; > 100 µM (inactive) in the experiment with IGROV-1; > 100 µM (inactive) with SF-268; > 100 µM (inactive) in the experiment with SR; more than 100 µM with HCT-15; > 100 µM (inactive) in the experiment on MDA-MB-231. Besides, the GI50 in the experiment with A549, with MCF7, in the experiment with CAKI-1, in the experiment on HT-29, in the experiment with COLO 205 and with HCT-116 was > 100 µM (inactive) throughout. Besides, the GI50 is > 100 µM (inactive) with SW-620; > 100 µM (inactive) in the experiment with NCI-H226; > 100 µM (inactive) with UACC-257; > 100 µM (inactive) in the experiment on K562; 40.4 µM (inactive) in the experiment with DU-145; > 100 µM (inactive) with KM12. The GI50 with T47D is > 100 µM (inactive).
Regarding `C/C(=N\NC(N)=S)c1sc(-n2nc(-c3ccccc3)cc2-c2ccccc2)nc1C`, the GI50 in the experiment with OVCAR-4 is 74.6 µM (inactive); with IGROV-1, 16 µM (inactive); with SF-268, > 100 µM (inactive); with MOLT-4 it was 27.9 µM (inactive); in the experiment with SR it was 67.3 µM (inactive); in the experiment on HCT-15, 94.4 µM. In addition, the GI50 in the experiment on MDA-MB-231 is 43.3 µM (inactive); with A549, > 100 µM (inactive); in the experiment on MCF7 it was 51.6 µM (inactive); in the experiment on CAKI-1, > 100 µM (inactive); with HT-29 it was 37.5 µM (inactive); in the experiment with COLO 205, > 100 µM (inactive). In addition, the GI50 in the experiment with HCT-116 is 55.8 µM (inactive); in the experiment on SW-620 it was > 100 µM (inactive); in the experiment on NCI-H226, > 100 µM (inactive); in the experiment with UACC-257, 85.5 µM (inactive); in the experiment on DU-145, > 100 µM (inactive); with KM12, > 100 µM (inactive). Besides, the GI50 in the experiment on T47D is 23.2 µM (inactive).
As to `CN1CCN(C(=S)N(C(=O)c2ccco2)c2ccccc2)CC1`, the GI50 is > 100 µM (inactive) in the experiment on OVCAR-4; > 100 µM (inactive) in the experiment with IGROV-1; > 100 µM (inactive) in the experiment with SF-268; > 100 µM (inactive) in the experiment on MOLT-4; > 100 µM (inactive) in the experiment on SR; more than 100 µM with HCT-15. The GI50 with MDA-MB-231, with A549, with MCF7, in the experiment with HT-29, in the experiment on COLO 205 and with SW-620 was > 100 µM (inactive) in each case. Besides, the GI50 with NCI-H226, with UACC-257, in the experiment with K562, in the experiment on DU-145, in the experiment with KM12 and in the experiment on T47D was > 100 µM (inactive) each time.
As to `Fc1c(F)c(C(F)(F)F)c(F)c(F)c1N/N=C/c1cn(Cc2ccccc2)c2ccccc12`, the GI50 was 23.4 µM (inactive) in the experiment with OVCAR-4; 27.5 µM (inactive) with IGROV-1; 43.2 µM (inactive) in the experiment on SF-268; 23.3 µM (inactive) with MOLT-4; 22.9 µM (inactive) in the experiment with SR; 25.2 µM with HCT-15. For the same compound, the GI50 in the experiment on MDA-MB-231 was 21 µM (inactive); in the experiment on A549, 27.9 µM (inactive); with MCF7, 23.1 µM (inactive); in the experiment with CAKI-1, 21.3 µM (inactive); with HT-29 it was 18.2 µM (inactive); with COLO 205 it was 13.5 µM (inactive). Besides, the GI50 was 23.1 µM (inactive) in the experiment with HCT-116; 30.9 µM (inactive) with SW-620; 21.5 µM (inactive) in the experiment with UACC-257; 31 µM (inactive) in the experiment on K562; 29.2 µM (inactive) in the experiment on DU-145; 20 µM (inactive) in the experiment on KM12. In the experiment with T47D, the GI50 was 23.6 µM (inactive).
Turning to `Cc1ccc(S(=O)(=O)NC(=O)NC(Cc2ccc(O)c(O)c2)C(=O)O)cc1` (centres undefined), the GI50 with OVCAR-4 is > 100 µM (inactive); with IGROV-1 it was > 100 µM (inactive); in the experiment with SF-268, 0.745 µM (active); with MOLT-4, > 100 µM (inactive); in the experiment with HCT-15, more than 100 µM; in the experiment on MDA-MB-231, > 100 µM (inactive). Also, the GI50 with A549, in the experiment with MCF7, in the experiment with CAKI-1, with HT-29, in the experiment with COLO 205 and in the experiment on HCT-116 was > 100 µM (inactive) in each case. The GI50 in the experiment on SW-620 was 24.9 µM (inactive); in the experiment with NCI-H226, > 100 µM (inactive); in the experiment on UACC-257, > 100 µM (inactive); with K562, 37.1 µM (inactive); in the experiment on DU-145, > 100 µM (inactive); with KM12 it was > 100 µM (inactive). Besides, the GI50 in the experiment with T47D is > 100 µM (inactive).
With `O=c1oc2cccnc2n1CCCCN1CCN(c2ccccc2)CC1`, the GI50 is > 100 µM (inactive) in the experiment with OVCAR-4; > 100 µM (inactive) in the experiment on IGROV-1; > 100 µM (inactive) in the experiment on SF-268; > 100 µM (inactive) in the experiment on MOLT-4; > 100 µM (inactive) in the experiment on SR; more than 100 µM in the experiment on HCT-15. Further, the GI50 with MDA-MB-231, in the experiment on A549, in the experiment on MCF7, in the experiment with CAKI-1, in the experiment on HT-29 and in the experiment on HCT-116 was > 100 µM (inactive) in each case. For the same compound, the GI50 in the experiment with SW-620, in the experiment with UACC-257, in the experiment on K562, in the experiment with DU-145 and in the experiment with T47D was > 100 µM (inactive) in each case.
Consider `CCOC(=O)CC(=O)C(=O)NN=C1NCCN1`, for which the GI50 in the experiment on OVCAR-4 was > 100 µM (inactive); with IGROV-1, > 100 µM (inactive); in the experiment on SF-268 it was > 100 µM (inactive); in the experiment on MOLT-4 it was > 100 µM (inactive); in the experiment on SR, > 100 µM (inactive); in the experiment on HCT-15, more than 100 µM. Besides, the GI50 with MDA-MB-231, in the experiment with A549, in the experiment on MCF7, in the experiment on HT-29, in the experiment on COLO 205 and with HCT-116 was > 100 µM (inactive) each time. In addition, the GI50 in the experiment on SW-620, with NCI-H226, in the experiment with UACC-257, with K562, in the experiment with DU-145 and with KM12 was > 100 µM (inactive) each time. The GI50 in the experiment with T47D is > 100 µM (inactive).
Take `Cc1cc(C)c2c(c1)CC1(Cc3cc(C)c(C)cc3C1=O)C2=O` (centres undefined): the GI50 in the experiment with OVCAR-4 was 77.8 µM (inactive); with IGROV-1, 90.4 µM (inactive); in the experiment on SF-268, > 100 µM (inactive); in the experiment with MOLT-4 it was > 100 µM (inactive); in the experiment on SR, 14.7 µM (inactive); in the experiment with HCT-15, more than 100 µM. In addition, the GI50 was > 100 µM (inactive) in the experiment on MDA-MB-231; 59.4 µM (inactive) with A549; > 100 µM (inactive) in the experiment with MCF7; > 100 µM (inactive) in the experiment on CAKI-1; > 100 µM (inactive) with COLO 205; 95.7 µM (inactive) in the experiment on SW-620. Moreover, the GI50 in the experiment with NCI-H226, with UACC-257, in the experiment on K562, with DU-145, in the experiment on KM12 and with T47D was > 100 µM (inactive) throughout.
On to `c1csc(-c2ccc(-c3ccc(-c4cccs4)s3)s2)c1`, for which the GI50 in the experiment on OVCAR-4 was > 100 µM (inactive); in the experiment on IGROV-1 it was > 100 µM (inactive); in the experiment on SF-268, > 100 µM (inactive); in the experiment with MOLT-4, > 100 µM (inactive); in the experiment on SR, > 100 µM (inactive); in the experiment with HCT-15, more than 100 µM. Besides, the GI50 in the experiment with MDA-MB-231, with A549, in the experiment on MCF7, in the experiment on CAKI-1, with HT-29 and in the experiment with COLO 205 was > 100 µM (inactive) each time. Besides, the GI50 in the experiment with HCT-116, in the experiment with SW-620, in the experiment with NCI-H226, with UACC-257, with DU-145 and with KM12 was > 100 µM (inactive) each time. In the experiment on T47D, the GI50 was > 100 µM (inactive).
